How the values were obtained:
Assay in all cases: relative viability (nuclei count vs DMSO), 5 days (fraction); higher = more cells survive
NCI-H647 = test system: NCI-H647
Procedure, shortened: (§1)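 The day after seeding in 1536-well plates, lung cancer cell lines were treated by pin tool with a single drug, or with a fixed anchor-drug dose together with five library-drug doses (not always all listed) in √10 steps. After 5 days, a combined fix-and-stain solution (final 0.05% Triton X-100, 1% formaldehyde, 1 ug/ml Hoechst) was added. Nuclei counted on 4× images gave relative viability as treated counts over vehicle counts, reported as the median of duplicate plates.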

SK-MES-1 = test system: SK-MES-1
Procedure, shortened: as §1

NCI-H2228 = test system: NCI-H2228
Procedure, shortened: as §1

LC-2-ad = test system: LC-2-ad
Procedure, shortened: as §1

NCI-H596 = test system: NCI-H596
Procedure, shortened: as §1

NCI-H1395 = test system: NCI-H1395
Procedure, shortened: as §1

NCI-H2170 = test system: NCI-H2170
Procedure, shortened: as §1

HCC-366 = test system: HCC-366
Procedure, shortened: as §1

HARA = test system: HARA
Procedure, shortened: as §1

NCI-H1792 = test system: NCI-H1792
Procedure, shortened: as §1

EKVX = test system: EKVX
Procedure, shortened: as §1

HCC-44 = test system: HCC-44
Procedure, shortened: as §1

BEN = test system: BEN
Procedure, shortened: as §1

NCI-H1734 = test system: NCI-H1734
Procedure, shortened: as §1

SK-LU-1 = test system: SK-LU-1
Procedure, shortened: as §1

HCC-827 = test system: HCC-827
Procedure, shortened: as §1

NCI-H2009 = test system: NCI-H2009
Procedure, shortened: as §1

NCI-H2405 = test system: NCI-H2405
Procedure, shortened: as §1

NCI-H661 = test system: NCI-H661
Procedure, shortened: as §1

LOU-NH91 = test system: LOU-NH91
Procedure, shortened: as §1

NCI-H1355 = test system: NCI-H1355
Procedure, shortened: as §1

NCI-H2087 = test system: NCI-H2087
Procedure, shortened: as §1

NCI-H1437 = test system: NCI-H1437
Procedure, shortened: as §1

Clc1ccc(Nc2nnc(Cc3ccncc3)c3ccccc23)cc1 [Vatalanib] + CS(=O)(=O)CCNCc1ccc(-c2ccc3ncnc(Nc4ccc(OCc5cccc(F)c5)c(Cl)c4)c3c2)o1 [Lapatinib] (partner 2 µM)
relative viability (NCI-H647; first compound 0.04 µM): 1.12 | relative viability (NCI-H647; first compound 0.1265 µM): 1.07 | relative viability (NCI-H647; first compound 0.4 µM): 1.26 | relative viability (NCI-H647; first compound 1.265 µM): 1.05 | relative viability (NCI-H647; first compound 4 µM): 1.04 | relative viability (SK-MES-1; first compound 0.04 µM): 0.516 | relative viability (SK-MES-1; first compound 0.1265 µM): 0.457 | relative viability (SK-MES-1; first compound 0.4 µM): 0.464 | relative viability (SK-MES-1; first compound 1.265 µM): 0.462 | relative viability (SK-MES-1; first compound 4 µM): 0.429 | relative viability (NCI-H2228; first compound 0.04 µM): 1.32 | relative viability (NCI-H2228; first compound 0.1265 µM): 1.14 | relative viability (NCI-H2228; first compound 0.4 µM): 1.06 | relative viability (NCI-H2228; first compound 1.265 µM): 0.981 | relative viability (NCI-H2228; first compound 4 µM): 1.28 | relative viability (LC-2-ad; first compound 0.04 µM): 0.977 | relative viability (LC-2-ad; first compound 0.1265 µM): 0.865 | relative viability (LC-2-ad; first compound 0.4 µM): 0.952 | relative viability (LC-2-ad; first compound 1.265 µM): 0.936 | relative viability (LC-2-ad; first compound 4 µM): 0.901 | relative viability (NCI-H596; first compound 0.04 µM): 1.07 | relative viability (NCI-H596; first compound 0.1265 µM): 1.22 | relative viability (NCI-H596; first compound 0.4 µM): 1.14 | relative viability (NCI-H596; first compound 1.265 µM): 1.03 | relative viability (NCI-H596; first compound 4 µM): 1.16 | relative viability (NCI-H1395; first compound 0.04 µM): 1.16 | relative viability (NCI-H1395; first compound 0.1265 µM): 0.929 | relative viability (NCI-H1395; first compound 0.4 µM): 0.948 | relative viability (NCI-H1395; first compound 1.265 µM): 1.01 | relative viability (NCI-H1395; first compound 4 µM): 0.864 | relative viability (NCI-H2170; first compound 0.04 µM): 0.261 | relative viability (NCI-H2170; first compound 0.1265 µM): 0.268 | relative viability (NCI-H2170; first compound 0.4 µM): 0.286 | relative viability (NCI-H2170; first compound 1.265 µM): 0.261 | relative viability (NCI-H2170; first compound 4 µM): 0.264 | relative viability (HCC-366; first compound 0.04 µM): 1.02 | relative viability (HCC-366; first compound 0.1265 µM): 0.93 | relative viability (HCC-366; first compound 0.4 µM): 1.06 | relative viability (HCC-366; first compound 1.265 µM): 0.937 | relative viability (HCC-366; first compound 4 µM): 1.03 | relative viability (HARA; first compound 0.04 µM): 0.583 | relative viability (HARA; first compound 0.1265 µM): 0.694 | relative viability (HARA; first compound 0.4 µM): 0.746 | relative viability (HARA; first compound 1.265 µM): 0.731 | relative viability (HARA; first compound 4 µM): 0.948 | relative viability (NCI-H1792; first compound 0.04 µM): 0.892 | relative viability (NCI-H1792; first compound 0.1265 µM): 0.852 | relative viability (NCI-H1792; first compound 0.4 µM): 0.966 | relative viability (NCI-H1792; first compound 1.265 µM): 0.87 | relative viability (NCI-H1792; first compound 4 µM): 0.877 | relative viability (EKVX; first compound 0.04 µM): 0.195 | relative viability (EKVX; first compound 0.1265 µM): 0.238 | relative viability (EKVX; first compound 0.4 µM): 0.547 | relative viability (EKVX; first compound 1.265 µM): 0.186 | relative viability (EKVX; first compound 4 µM): 0.216 | relative viability (HCC-44; first compound 0.04 µM): 1.01 | relative viability (HCC-44; first compound 0.1265 µM): 0.941 | relative viability (HCC-44; first compound 0.4 µM): 1.02 | relative viability (HCC-44; first compound 1.265 µM): 0.986 | relative viability (HCC-44; first compound 4 µM): 0.986 | relative viability (BEN; first compound 0.04 µM): 0.79 | relative viability (BEN; first compound 0.1265 µM): 0.554 | relative viability (BEN; first compound 0.4 µM): 0.806 | relative viability (BEN; first compound 1.265 µM): 0.657 | relative viability (BEN; first compound 4 µM): 0.767 | relative viability (NCI-H1734; first compound 0.04 µM): 0.919 | relative viability (NCI-H1734; first compound 0.1265 µM): 1.02 | relative viability (NCI-H1734; first compound 0.4 µM): 1.11 | relative viability (NCI-H1734; first compound 1.265 µM): 1.06 | relative viability (NCI-H1734; first compound 4 µM): 1.09 | relative viability (SK-LU-1; first compound 0.04 µM): 0.963 | relative viability (SK-LU-1; first compound 0.1265 µM): 0.875 | relative viability (SK-LU-1; first compound 0.4 µM): 1.21 | relative viability (SK-LU-1; first compound 1.265 µM): 0.885 | relative viability (SK-LU-1; first compound 4 µM): 0.848 | relative viability (HCC-827; first compound 0.04 µM): 0.19 | relative viability (HCC-827; first compound 0.1265 µM): 0.174 | relative viability (HCC-827; first compound 0.4 µM): 0.182 | relative viability (HCC-827; first compound 1.265 µM): 0.165 | relative viability (HCC-827; first compound 4 µM): 0.188 | relative viability (NCI-H2009; first compound 0.04 µM): 1.03 | relative viability (NCI-H2009; first compound 0.1265 µM): 0.868 | relative viability (NCI-H2009; first compound 0.4 µM): 1.1 | relative viability (NCI-H2009; first compound 1.265 µM): 0.894 | relative viability (NCI-H2009; first compound 4 µM): 0.919 | relative viability (NCI-H2405; first compound 0.04 µM): 1.04 | relative viability (NCI-H2405; first compound 0.1265 µM): 0.984 | relative viability (NCI-H2405; first compound 1.265 µM): 0.923 | relative viability (NCI-H2405; first compound 4 µM): 1.05 | relative viability (NCI-H661; first compound 0.04 µM): 0.505 | relative viability (NCI-H661; first compound 0.1265 µM): 0.384 | relative viability (NCI-H661; first compound 0.4 µM): 0.518 | relative viability (NCI-H661; first compound 1.265 µM): 0.524 | relative viability (NCI-H661; first compound 4 µM): 0.496 | relative viability (LOU-NH91; first compound 0.04 µM): 0.763 | relative viability (LOU-NH91; first compound 0.1265 µM): 0.741 | relative viability (LOU-NH91; first compound 0.4 µM): 0.802 | relative viability (LOU-NH91; first compound 1.265 µM): 0.689 | relative viability (LOU-NH91; first compound 4 µM): 0.664 | relative viability (NCI-H1355; first compound 0.04 µM): 1.02 | relative viability (NCI-H1355; first compound 0.1265 µM): 0.934 | relative viability (NCI-H1355; first compound 0.4 µM): 1.14 | relative viability (NCI-H1355; first compound 1.265 µM): 0.86 | relative viability (NCI-H1355; first compound 4 µM): 0.887 | relative viability (NCI-H2087; first compound 0.04 µM): 1.12 | relative viability (NCI-H2087; first compound 0.1265 µM): 1.02 | relative viability (NCI-H2087; first compound 0.4 µM): 1.15 | relative viability (NCI-H2087; first compound 1.265 µM): 1.09 | relative viability (NCI-H2087; first compound 4 µM): 1.12 | relative viability (NCI-H1437; first compound 0.04 µM): 0.856 | relative viability (NCI-H1437; first compound 0.1265 µM): 0.779 | relative viability (NCI-H1437; first compound 0.4 µM): 0.934 | relative viability (NCI-H1437; first compound 1.265 µM): 0.734 | relative viability (NCI-H1437; first compound 4 µM): 0.848
